Results on one compound are retold here after patent US6576663B2, “6-Keto prostaglandin F1α and analogs for treating dry eye” (Alcon, Inc., priority 1999, dated 2003).

Molecules are shown by their SMILES.

Assay [1] relates to human conjuctival epithelium. The experiment in a line: mucin production in human conjuctival epithelium. The class given is cell-based.
Assay [2] concerns intestinal epithelial cells. The following applies: released by intestinal epithelial cells in response to hypoxia; cited from earlier work.

Take `CCCCC[C@H](O)/C=C/[C@@H]1[C@@H](CC(=O)CCCCC(=O)O)[C@@H](O)C[C@H]1O` [6-keto PGF1α, 6-keto-PGF1α]: the mucin production result in assay [1] was “stimulate mucin production”. Further, the chloride secretagogue activity entry in assay [2] is reported as “potent chloride secretagogue”.
